Assay results: US11371019B2, “Efficient generation of human red blood cells via enriching peripheral blood erythroid progenitors” (Whitehead Institute for Biomedical Research, priority 2016, dated 2022)

Legend:
[1] = tested on: TGFBR3^lo mouse BFU-E cells; assay: colony forming assay for large BFU-E colony numbers; format: cell-based; conditions: culture system; FIG. 12
Description: FIG. 12. A chart showing an exemplary colony forming assays were conducted to determine large BFU-E colony numbers from 100 TGFBR3^lo mouse BFU-E cells cultured under the indicated conditions. Colony forming assays were performed at indicated time points.
(§1) For new drug discovery or drug repurposing for treating blood diseases, compounds of interest were added into cell culture after progenitor purification. The efficacy of drugs is evaluated based on total red blood cell production, numbers of erythroid progenitor BFU-E and CFU-E (quantified by colony forming assay) and/or level of fetal globin expression.

[2] = tested on: purified mouse TGFBR3^lo BFU-E cells; assay: total red cell production from purified BFU-E cells in SFELE medium; format: cell-based; conditions: culture system; FIG. 13
Description: FIG. 13. A chart showing the treatment of purified mouse TGFBR3^lo BFU-E cells with DMSO, DEX or TGFβ signaling inhibitor galunisertib. The cells were seeded in SFELE medium supplemented with the test agent.
as §1

Cc1cccc(-c2nn3c(c2-c2ccnc4ccc(C(N)=O)cc24)CCC3)n1 [galunisertib]
BFU-E numbers [1]: increase BFU-E numbers | total red cell production [2]: increase
